Results: ChEMBL document CHEMBL3046842, “Antimicrobial and insect antifeedant activities of some Trogers bases” (2012)
The source made the active and inactive calls.

How the values were obtained:
Proteus vulgaris = experiment: Antibacterial activity against Proteus vulgaris at 250 ug/ml after 24 to 45 hrs by disc diffusion method; type: functional; conditions: for zone of inhibition at 250 µg/mL: read-out: IZ
Pseudomonas = experiment: Antibacterial activity against Pseudomonas at 250 ug/ml after 24 to 45 hrs by disc diffusion method; type: functional; conditions: read-out: IZ
Enterococcus faecalis = experiment: Antibacterial activity against Enterococcus faecalis at 250 ug/ml after 24 to 45 hrs by disc diffusion method; type: functional; conditions: for zone of inhibition at 250 µg/mL: read-out: IZ
Penicillium = experiment: Antifungal activity against Penicillium at 50 ug/ml after 72 hrs by disc diffusion method; type: functional, organism-based
Aspergillus niger = experiment: Antifungal activity against Aspergillus niger at 50 ug/ml after 72 hrs by disc diffusion method; type: functional, organism-based
Candida albicans = experiment: Antifungal activity against Candida albicans at 250 ug/ml after 72 hrs by disc diffusion method; type: functional; conditions: for zone of inhibition at 250 µg/mL: read-out: IZ
Klebsiella pneumoniae = experiment: Antibacterial activity against Klebsiella pneumoniae at 250 ug/ml after 24 to 45 hrs by disc diffusion method; type: functional; conditions: read-out: IZ
Staphylococcus aureus = experiment: Antibacterial activity against Staphylococcus aureus at 250 ug/ml after 24 to 45 hrs by disc diffusion method; type: functional; conditions: read-out: IZ
Escherichia coli = experiment: Antibacterial activity against Escherichia coli at 250 ug/ml after 24 to 45 hrs by disc diffusion method; type: functional; conditions: read-out: IZ
Achaea janata = experiment: Antifeedant activity against fourth instar larvae of Achaea janata fed on compound treated castor leaves at 200 ppm after 24 hrs by leaf disc method; type: functional, organism-based

| Compound | zone of inhibition at 250 µg/mL (Proteus vulgaris) [mm] | zone of inhibition at 250 µg/mL (Pseudomonas) [mm] | zone of inhibition at 250 µg/mL (Enterococcus faecalis) [mm] | Activity (Penicillium) | Activity (Aspergillus niger) | zone of inhibition at 250 µg/mL (Candida albicans) [mm] | zone of inhibition at 250 µg/mL (Klebsiella pneumoniae) [mm] | zone of inhibition at 250 µg/mL (Staphylococcus aureus) [mm] | zone of inhibition at 250 µg/mL (Escherichia coli) [mm] | Activity (Enterococcus faecalis) | Activity (Achaea janata) | Activity (Candida albicans) | Activity (Proteus vulgaris) |
| --- | --- | --- | --- | --- | --- | --- | --- | --- | --- | --- | --- | --- | --- |
| Cc1cc(N)cc2c1N1Cc3cc(N)cc(C)c3N(C2)C1 | 13 | 13 | 8 | inactive | inactive | 13 | 13 | 13 | 13 | – | – | – | – |
| Cc1cc2c(cc1I)N1Cc3cc(C)c(I)cc3N(C2)C1 | 8 | 8 | – | inactive | inactive | 13 | 8 | 13 | 8 | inactive | Active | – | – |
| Cc1ccc2c(c1O)CN1CN2Cc2c1ccc(C)c2O | 8 | 8 | 13 | inactive | inactive | 13 | 8 | 13 | 8 | – | – | – | – |
| CCOC(=O)c1ccc2c(c1)CN1CN2Cc2cc(C(=O)OCC)ccc21 | 13 | 20 | 20 | inactive | inactive | – | 13 | 20 | 20 | – | – | inactive | – |
| Cc1cc(I)c2c(c1)CN1CN2Cc2cc(C)cc(I)c21 | 13 | 8 | 8 | inactive | inactive | 13 | 13 | 13 | 13 | – | Active | – | – |
| O=[N+]([O-])c1ccc2c(c1)CN1CN2Cc2cc([N+](=O)[O-])ccc21 | 13 | 13 | 20 | inactive | inactive | – | 13 | 13 | 20 | – | – | inactive | – |
| Brc1ccc2c(c1)CN1CN2Cc2cc(Br)ccc21 | 13 | 13 | 20 | Active | Active | 20 | 20 | 20 | 20 | – | Active | – | – |
| Cc1ccc2c(c1I)CN1CN2Cc2c1ccc(C)c2I | 8 | 13 | 13 | inactive | inactive | 13 | 13 | 8 | 8 | – | Active | – | – |
| Nc1ccc2c(c1)CN1CN2Cc2cc(N)ccc21 | 13 | 13 | – | inactive | inactive | 13 | 13 | 13 | 13 | inactive | – | – | – |
| Cc1ccc2c(c1C)N1Cc3ccc(C)c(C)c3N(C2)C1 | – | 8 | 8 | Active | inactive | 8 | 13 | 8 | 13 | – | – | – | inactive |
| COc1cc(C)c2c(c1)CN1CN2Cc2cc(OC)cc(C)c21 | 8 | 20 | 13 | Active | inactive | 20 | 20 | 20 | 20 | – | – | – | – |
| Cc1cc(Br)c2c(c1)CN1CN2Cc2cc(C)cc(Br)c21 | 13 | 13 | – | inactive | inactive | 8 | 13 | 13 | 13 | inactive | – | – | – |
| c1ccc2c(c1)CN1CN2Cc2ccccc21 | 8 | 8 | – | inactive | inactive | – | 8 | 13 | 8 | inactive | – | inactive | – |
| Cc1cc([N+](=O)[O-])cc2c1N1Cc3cc([N+](=O)[O-])cc(C)c3N(C2)C1 | 13 | 13 | 8 | inactive | inactive | 13 | 13 | 13 | 13 | – | – | – | – |
| Cc1cc(C)c2c(c1)CN1CN2Cc2cc(C)cc(C)c21 | 13 | 8 | 8 | inactive | inactive | 13 | 13 | 13 | 13 | – | – | – | – |
| Cc1cccc2c1N1Cc3cccc(C)c3N(C2)C1 | 8 | 13 | 13 | inactive | inactive | 13 | 13 | 8 | 8 | – | – | – | – |
| COc1ccc2c(c1)CN1CN2Cc2cc(OC)ccc21 | 13 | 20 | 20 | Active | inactive | 20 | 13 | 20 | 20 | – | – | – | – |
| CC(=O)c1cccc2c1N1Cc3cccc(C(C)=O)c3N(C2)C1 | 8 | 8 | – | inactive | Active | 20 | 8 | 13 | 8 | inactive | – | – | – |
| Cc1ccc2c(c1)CN1CN2Cc2cc(C)ccc21 | 8 | 8 | – | inactive | inactive | 13 | 8 | 13 | 8 | inactive | – | – | – |
| Cc1cc2c(cc1Br)N1Cc3cc(C)c(Br)cc3N(C2)C1 | 8 | 8 | 13 | inactive | inactive | 13 | 8 | 13 | 8 | – | – | – | – |
| Cc1cc(N)c2c(c1)CN1CN2Cc2cc(C)cc(N)c21 | 13 | 13 | – | Active | inactive | 13 | 13 | 13 | 13 | inactive | – | – | – |
| CCOc1ccc2c(c1)CN1CN2Cc2cc(OCC)ccc21 | 13 | 20 | – | Active | Active | 8 | 13 | 20 | 20 | inactive | – | – | – |
| N#Cc1ccc2c(c1)CN1CN2Cc2cc(C#N)ccc21 | 13 | 13 | – | inactive | inactive | 13 | 13 | 13 | 13 | inactive | – | – | – |
| Cc1cc(C#N)c2c(c1)CN1CN2Cc2cc(C)cc(C#N)c21 | 8 | 8 | – | inactive | inactive | 13 | 8 | 8 | 13 | inactive | – | – | – |
| CCCOC(=O)c1ccc2c(c1)CN1CN2Cc2cc(C(=O)OCCC)ccc21 | 13 | 20 | 20 | Active | Active | 13 | 20 | 20 | 13 | – | – | – | – |
